Measured values from patent US9242962B2, “Method of treatment” (GlaxoSmithKline Intellectual Property (No. 2) Limited, priority 2011, dated 2016).

Key:
CD4+ T cells [1] = assay: T cell receptor-induced CD4+ T cell proliferation (CFSE, flow cytometry); assay type: cell-based, human; conditions: 10 μg/mL αCD3 + 2 μg/mL αCD28, 6 days; for IC50: Homo sapiens, CD4+ T, 144 h, division index by CFSE, n=4, ±sem, read-out: pIC50, T cell receptor-induced proliferation of CD4+ T cells (converted)
Protocol: (§1) 15 mls ficoll was added to 8×50 mL accuspin tubes per donor and centrifuged at 2000 RPM for 1 min. Whole blood samples (200 mL+1% heparin) were collected from human donors. Approximately 25 ml blood was added to each ficoll pre-filled 50 ml falcon tubes with filter and centrifuged at 1500 RPM for 20 min with the brake off to avoid disturbing cell separation. 45 ml with PBS was added to the PBMC fraction of each tube and centrifuged at 1500 RPM for 10 min with brake. Supernatant were discarded and cell pellets resuspended in 2 ml PBS. Cell suspensions for each donor were recombined into a single falcon tube, made up to 45 ml with PBS and centrifuged at 1500 RPM for 10 min. CD4+ T cells were isolated by negative depletion using a CD4 T cell Isolation Kit from Miltenyi Biotech according to manufacturers protocol.
96-well flat-bottom plates were coated with 10 μg/mL anti-CD3+2 μg/mL anti-CD28 at 4° C. overnight. The following day, plates were washed with PBS. For proliferation studies, cells were stained with CFSE (Invitrogen) according to manufacturer's protocol. […] Cells were then transferred to 96-well round-bottom plates, washed and then analysed by flow cytometry.
(§2) Anti-CD3 (HU CD3 NALE MAB UCHT1; Cat #555329) and anti-CD28 (HU CD28 NALE MAB CD28.2; Cat #: 555725), were obtained from BD Pharmingen and dissolved in Dulbecco's Phosphate Buffered Saline (with Ca2+/Mg2+; Gibco). Ficoll-paque (Cat #17-1440-03) was obtained from GE Healthcare. The CD4+ T cell isolation kit (Cat #130-091-155) was obtained from Miltenyi Biotec. Cells were cultured in RPMI 1640 containing 10% FCS+1% pen/strep+1% L-glutamine. The CellTrace CFSE cell proliferation kit (Cat #C34554) was obtained from Invitrogen. Compound A, Compound B and Compound C were all synthesised in house and dissolved in 100% DMSO.
Flowjo Software was used to calculate a division index using fluorescence intensity. Data are expressed as mean±standard error of the mean; n values are the numbers of human donors used. pIC50 values were generated using GraphPad Prism software and non-linear sigmoid dose curve-fit.

CD4+ T cells [2] = assay: T cell receptor-induced cytokine production in CD4+ T cells (multiplex ELISA); assay type: cell-based, human; conditions: for IC50: Homo sapiens, CD4+ T, n=4, ±sem, read-out: pIC50, T cell receptor-induced production of IL-2 in CD4+ T cells (converted)
Protocol: as §1
96-well flat-bottom plates were coated with 10 μg/mL anti-CD3+2 μg/mL anti-CD28 at 4° C. overnight. The following day, plates were washed with PBS. For cytokine production studies, cells were added to anti-CD3+anti-CD28 pre-coated 96-well plates at 0.4×10^6 cells/well in the presence of EZH1/EZH2 inhibitors or vehicle and incubated at 37° C./5% CO2. Supernatants were taken 18 h (IL-2) or 72 h (IL-10, IL-13, IL-17, IFN, TNF) for determination of cytokine production by multiplex ELISA from Mesoscale discovery according to the manufacturers protocols.
as §2
Data were analysed using Excel and are expressed as mean±standard error of the mean; n values are the numbers of human donors used. pIC50 values were generated using GraphPad Prism software and non-linear sigmoid dose curve-fit.

Row | Structure (SMILES) | IC50 (CD4+ T cells [1]) [µM] | IC50 (CD4+ T cells [2]; 18 h post stimulation) [nM] | effect on T cell receptor-induced proliferation of CD4+ T cells (CD4+ T cells [1]; n=4) | effect on T cell receptor-induced production of IL-2 in CD4+ T cells (CD4+ T cells [2]; 18 h post stimulation, n=4, a pIC50 could not be calculated) | effect on T cell receptor-induced production of IL-17 or IFN in CD4+ T cells (CD4+ T cells [2]; 72 h post stimulation, n=4) | effect on IL-10, IL-13 & TNF production (CD4+ T cells [2]; High concentrations (i.e. >15 μM), 72 h, n=4)
1 | CCCc1cc(C)[nH]c(=O)c1CNC(=O)c1cc(-c2ccc(N3CCN(C)CC3)nc2)cc2c1cnn2C(C)C [Compound A, 1-(1-methylethyl)-N-[(6-methyl-2-oxo-4-propyl-1,2-dihydro-3-pyridinyl)methyl]-6-[6-(4-methyl-1-piperazinyl)-3-pyridinyl]-1H-indazole-4-carboxamide] | 5.01 | 575 | – | – | – | –
2 | Cc1cc(C)c(CNC(=O)c2cc(-c3ccc(N4CCN(C)CC4)nc3)cc3c2c(C)cn3C(C)C)c(=O)[nH]1 [Compound B, N-[(4,6-dimethyl-2-oxo-1,2-dihydro-3-pyridinyl)methyl]-3-methyl-1-(1-methylethyl)-6-[6-(4-methyl-1-piperazinyl)-3-pyridinyl]-1H-indole-4-carboxamide] | 11.7 | 1740 | – | – | – | –
3 | Cc1ccc(CNC(=O)c2cc(C3CC3)nc3c2cnn3C(C)C)c(=O)[nH]1 [Compound C, 6-cyclopropyl-1-(1-methylethyl)-N-[(6-methyl-2-oxo-1,2-dihydro-3-pyridinyl)methyl]-1H-pyrazolo[3,4-b]pyridine-4-carboxamide] | – | – | had no effect | impaired | had no effect | reduced
